Earlier results as cited in patent US20210252031A1, “USE OF LACTULOSE IN THE TREATMENT OF AUTISM” (Curemark, LLC, priority 2006, published 2021).

solubility in water: very soluble in water
SMILES: OC[C@H]1O[C@@H](O[C@@H]2[C@@H](CO)OC(O)(CO)[C@H]2O)[C@H](O)[C@@H](O)[C@H]1O (stereo partly drawn) [Lactulose, 4-O-beta-D-galactopyranosyl-D-fructofuranose]
